Reference: patent US9546145B2, “Combination therapy for the treatment of chronic renal failure with an angiotensin II receptor antagonist and beraprost” (Toray Industries, Inc., priority 2003, dated 2017)
Where a name gives a salt, the structure may show the parent alone.

Tests used:
[1] = system: patients suffering from diabetic nephropathy; settings: Nephron 2002, 92(4): 788-96; cited from earlier work
[2] = system: glomerular nephritis model in rats; settings: Kidney Int 1998, 53(5) 1314-20; cited from earlier work
[3] = system: WKY rats with nephritis induced by rabbit anti-rat glomerular basement membrane antiserum (renal failure stage); experiment: nephritis-induced renal failure model in rats, blood creatinine level; format: in vivo; settings: for effect to suppress the progress of nephritis (raise in the blood creatinine level) / effect to suppress the progress of nephropathy (blood creatinine level): Example 1, FIG. 1; for effect to suppress the progress of nephritis (raise in the blood creatinine level): beraprost sodium 100 μg/kg BID and/or candesartan cilexetil 10 mg/kg OAD; for effect to suppress the progress of nephritis (raise in the blood creatinine level) / effect to suppress the progress of renal failure: compared with the control group; for effect to suppress the progress of nephropathy (blood creatinine level): increased dosage alone: beraprost sodium 300 μg/kg BID or candesartan cilexetil 30 mg/kg OAD, compared with BPS100+candesartan10 group; for blood creatinine level at 7 weeks after induction: started 2 weeks after antiserum
Description: After the start of the medication, blood was collected at one week intervals, and blood creatinine level was measured. To 9-week old WKY rats, rabbit anti-rat glomerular basement membrane antiserum was administered to induce nephritis. […] To 9-week old WKY rats, rabbit anti-rat glomerular basement membrane antiserum was administered to induce nephritis. […] At six weeks after the induction, blood creatinine level was measured to assess the progress of renal failure. […] To 9-week old WKY rats, rabbit anti-rat glomerular basement membrane antiserum was administered to induce nephritis. […] After the start of the medication, blood was collected at one week intervals, and blood creatinine level was measured. The data were plotted taking the reciprocal of the blood creatinine level measured for five weeks after the start of the medication along the ordinate and taking the time along the abscissa, and the slope of the regression line was defined as the rate of progress of renal failure of each animal. To 9-week old WKY rats, rabbit anti-rat glomerular basement membrane antiserum was administered to induce nephritis. […] After the start of the medication, blood was collected at one week intervals, and blood creatinine level was measured. The data were plotted taking the reciprocal of the blood creatinine level measured for five weeks after the start of the medication along the ordinate and taking the time along the abscissa, and the slope of the asymptote was defined as the rate of progress of renal failure of each animal. To 9-week old WKY rats, rabbit anti-rat glomerular basement membrane antiserum was administered to induce nephritis. […] After the start of the medication, blood was collected at one week intervals, and blood creatinine level was measured. The data were plotted taking the reciprocal of the blood creatinine level measured for six weeks after the start of the medication along the ordinate and taking the time along the abscissa, and the slope of the asymptote was defined as the rate of progress of renal failure of each animal.

[4] = system: WKY rats with nephritis induced by rabbit anti-rat glomerular basement membrane antiserum; experiment: nephritis-induced renal failure model in rats, mortality / survival rate; format: in vivo; settings: Example 7, FIG. 2; candesartan cilexetil 10 mg/kg OAD and/or beraprost sodium 100 μg/kg BID; compared with the control group
Description: To 9-week old WKY rats, rabbit anti-rat glomerular basement membrane antiserum was administered to induce nephritis. At two weeks after administering the antiserum, the animals were divided into the following 4 groups and medication was started. • 1) Control Group: 0.5% CMC(OAD)+distilled water (BID), n=11 • 2) Candesartan Group (Comparative Example): candesartan cilexetil 10 mg/kg (OAD)+distilled water (BID), n=11 • 3) BPS Group (Comparative Example): 0.5% CMC(OAD)+beraprost sodium 100 μg/kg (BID), n=11 • 4) Candesartan+BPS Group (this disclosure): candesartan cilexetil 10 mg/kg (OAD)+beraprost sodium 100 μg/kg (BID), n=12

[5] = system: patients suffering from diabetic nephropathy; settings: N Engl J Med 2001, 345(12): 861-9; cited from earlier work
[6] = system: renal dysfunction induced by uninephrectomy and by loading high sodium and high protein; settings: Am J Hypertens 1997 10: 209-16; cited from earlier work
[7] = system: diabetes mellitus model in rats; settings: each drug individually or in combination, versus control group; Am J Hypertens 1997 10: 202-208; cited from earlier work
[8] = system: diabetic nephritis induced by streptozotocin in rats; settings: J Hypertens Suppl 1993; 11 Suppl 5: S208-9; cited from earlier work
[9] = system: anti-Thyl-induced nephritis model; settings: Am J Pathol 1993; 142(2): 441-50; cited from earlier work
diabetic nephropathy = settings: compared with blood pressure control by a calcium antagonist; N Engl J Med 2001; 345(12): 851-60; cited from earlier work
[10] = Example 2, during medication, telmisartan 40 mg/kg OAD and/or beraprost sodium 100 μg/kg BID
[11] = Example 2, telmisartan 40 mg/kg OAD and/or beraprost sodium 100 μg/kg BID, mean ± S.E.
[12] = Example 3, losartan 30 mg/kg BID and/or beraprost sodium 100 μg/kg BID
[13] = Example 3, losartan 30 mg/kg BID and/or beraprost sodium 100 μg/kg BID, mean ± S.E.
[14] = Example 4, enalapril maleate 10 mg/kg OAD and/or beraprost sodium 100 μg/kg BID
[15] = Example 4, enalapril maleate 10 mg/kg OAD and/or beraprost sodium 100 μg/kg BID, mean ± S.E.
[16] = Example 4, slope of regression line of reciprocal blood creatinine over five weeks of medication, enalapril maleate 10 mg/kg OAD and/or beraprost sodium 100 μg/kg BID, mean ± S.E.
[17] = Example 5, lisinopril 10 mg/kg OAD and/or beraprost sodium 100 μg/kg BID
[18] = Example 5, lisinopril 10 mg/kg OAD and/or beraprost sodium 100 μg/kg BID, mean ± S.E.
[19] = Example 5, slope of reciprocal blood creatinine over five weeks of medication, lisinopril 10 mg/kg OAD and/or beraprost sodium 100 μg/kg BID, mean ± S.E.
[20] = Example 6, perindopril erbumine 10 mg/kg OAD and/or beraprost sodium 100 μg/kg BID
[21] = Example 6, slope of reciprocal blood creatinine over six weeks of medication, perindopril erbumine 10 mg/kg OAD and/or beraprost sodium 100 μg/kg BID

In the case of CC#CCC(C)[C@H](O)/C=C/[C@@H]1[C@H]2c3cccc(CCCC(=O)[O-])c3O[C@H]2C[C@H]1O.[Na+] (stereo partly drawn) [BPS, beraprost sodium], the urinary protein [1] is given as “decreases urinary protein”, the urinary protein [2] is given as “decreases urinary protein” and the “effect to suppress the progress of nephritis (raise in the blood creatinine level)” value [3] is given as “almost no difference”. For the same compound, the “effect to suppress the progress of nephropathy (blood creatinine level)” value [3] was “smaller than that observed in BPS100+candesartan10 group”, the “effect to suppress the progress of renal failure” value (“effect … of renal failure” below) [3, 10] was “almost no difference” and the “blood creatinine level at 7 weeks after induction” value [3, 11] was 1.56 ± 0.76 mg/dL. The “effect … of renal failure” value [3, 12] was “no difference”, the “blood creatinine level at 6 weeks after induction” value (shortened to “blood creatinine level at 6 weeks”) [3, 13] was 0.93 ± 0.18 mg/dL and the “effect … of renal failure” value [3, 14] was “no difference”. For the same compound, the “blood creatinine level at 6 weeks” value [3, 15] was 0.93 ± 0.18 mg/dL, the “rate of progress of renal failure” value [3, 16] was 0.32 ± 0.04 dL/mg × week and the “effect … of renal failure” value [3, 17] was “almost no difference”. The “blood creatinine level at 6 weeks” value [3, 18] was 1.49 ± 0.59 mg/dL, the “rate of progress of renal failure” value [3, 19] was 0.37 ± 0.07 dL/mg × week and the “blood creatinine level at 6 weeks” value [3, 20] was 0.93 ± 0.18 mg/dL. The “effect … of renal failure” value [3, 20] was “tendency to suppress the progress of renal failure”, the “rate of progress of renal failure” value [3, 21] was 0.29 ± 0.03 dL/mg × week and the “mortality rate / survival rate” value [4] was “no difference”.
With CCOC(=O)[C@H](CCc1ccccc1)N[C@@H](C)C(=O)N1CCC[C@H]1C(=O)O [Enalapril, enalapril maleate] the “effect … of renal failure” value [3, 14] was “no difference”, the “blood creatinine level at 6 weeks” value [3, 15] was 1.83 ± 0.44 mg/dL and the “rate of progress of renal failure” value [3, 16] was 0.41 ± 0.04 dL/mg × week.
In the case of NCCCC[C@H](N[C@@H](CCc1ccccc1)C(=O)O)C(=O)N1CCC[C@H]1C(=O)O [Lisinopril, lisinopril], the “effect … of renal failure” value [3, 17] is reported as “almost no difference”, the “blood creatinine level at 6 weeks” value [3, 18] is reported as 1.20 ± 0.34 mg/dL and the “rate of progress of renal failure” value [3, 19] is reported as 0.39 ± 0.08 dL/mg × week.
For CCCCc1nc(Cl)c(CO)n1Cc1ccc(-c2ccccc2-c2nn[nH]n2)cc1 [Losartan, losartan], the “risk-lowering rate (doubling time of creatinine, dialysis, complicated risk of death)” value [5] is listed as 16.1%, the “effect … of renal failure” value [3, 12] is listed as “no difference” and the “blood creatinine level at 6 weeks” value [3, 13] is listed as 1.94 ± 0.61 mg/dL.
For CCC[C@H](N[C@@H](C)C(=O)N1[C@H](C(=O)O)C[C@@H]2CCCC[C@@H]21)C(=O)OCC [Perindopril, perindopril erbumine], the “blood creatinine level at 6 weeks” value [3, 20] was 1.09 ± 0.42 mg/dL, the “effect … of renal failure” value [3, 20] was “tendency to suppress the progress of renal failure” and the “rate of progress of renal failure” value [3, 21] was 0.30 ± 0.05 dL/mg × week.
In the case of CCCc1nc2c(C)cc(-c3nc4ccccc4n3C)cc2n1Cc1ccc(-c2ccccc2C(=O)O)cc1 [Telmisartan, telmisartan], the “effect … of renal failure” value [3, 10] is reported as “suppressed”, the “blood creatinine level at 7 weeks after induction” value [3, 11] is reported as 0.93 ± 0.43 mg/dL and the “blood creatinine level at 8 weeks after induction (1 week after the end of the medication)” value [3, 11] is reported as 1.18 ± 0.80 mg/dL. The “progress of renal failure / blood creatinine level at one week after the end of the medication” value ([3]; Example 2, telmisartan 40 mg/kg OAD with or without beraprost sodium 100 μg/kg BID) was “renal failure was progressed”.
For CCOc1nc2cccc(C(=O)OC(C)OC(=O)OC3CCCCC3)c2n1Cc1ccc(-c2ccccc2-c2nn[nH]n2)cc1 (stereo not drawn) [candesartan, candesartan cilexetil], the “effect to suppress the progress of nephritis (raise in the blood creatinine level)” value [3] was “almost no difference”, the “effect to suppress the progress of nephropathy (blood creatinine level)” value [3] was “smaller than that observed in BPS100+candesartan10 group” and the “mortality rate / survival rate” value [4] was “no difference”.
For CCC#CC[C@H](C)[C@H](O)C#C[C@@H]1[C@H]2C/C(=C/COCC(=O)O)C[C@H]2C[C@H]1O [cicaprost], the “suppression of renal dysfunction” value [6] is given as “suppressed”, the “renal function parameters such as urinary protein, damage of renal tissue” value [7] is given as “less severe” and the “suppression of diabetic nephritis” value [8] is given as “suppressed”.
In the case of CC#CCC(C)[C@H](O)/C=C/[C@@H]1[C@H]2C/C(=C/CCCC(=O)O)C[C@H]2C[C@H]1O (stereo partly drawn) [iloprost], the urinary protein [9] is given as “decreased urinary protein”.
In the case of CCCCC1=NC2(CCCC2)C(=O)N1Cc1ccc(-c2ccccc2-c2nnn[nH]2)cc1 [irbesartan], the “effect of suppressing the progress of diabetic nephropathy” value (diabetic nephropathy) is given as “superior”.
